Biological target: T1, Recombinant human liver GK1 (GST-GK) (Homo sapiens, UniProt P35557)
T1 construct: made in house; host or cells: E. coli
T1 sequence (P35557 1-466 isoform P35557-2): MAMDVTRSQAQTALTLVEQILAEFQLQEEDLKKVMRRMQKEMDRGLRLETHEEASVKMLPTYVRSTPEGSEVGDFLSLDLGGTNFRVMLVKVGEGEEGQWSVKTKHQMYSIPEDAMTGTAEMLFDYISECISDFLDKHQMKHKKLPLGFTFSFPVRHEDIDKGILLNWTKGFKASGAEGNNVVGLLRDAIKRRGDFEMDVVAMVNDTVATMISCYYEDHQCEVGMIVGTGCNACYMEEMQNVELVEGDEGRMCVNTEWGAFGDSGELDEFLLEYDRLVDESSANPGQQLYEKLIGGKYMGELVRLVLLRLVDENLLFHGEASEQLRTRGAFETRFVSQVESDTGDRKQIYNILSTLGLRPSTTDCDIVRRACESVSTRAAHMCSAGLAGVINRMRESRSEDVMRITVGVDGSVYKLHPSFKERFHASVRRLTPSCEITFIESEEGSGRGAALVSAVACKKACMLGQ
Assay: Glucokinase in vitro assay (G6PDH-coupled NADH generation, OD340)
Format: biochemical
Conditions: 30 uM test compound, 5 mM D-glucose
Method in brief: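 Activation readout is SC1.5, the activator concentration raising GK rate (OD340/min) 50% above 10% DMSO controls. The coupled reaction used GST-GK1 from E. coli, 5 mM glucose, 1 mM ATP, 1.8 mM NAD and 25 mM Hepes pH 7.1 at 30° C. Enzyme was added after a 10 min compound pre-incubation.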

Row | Structure (SMILES) | fold activation @ 30 uM
1 | CC(C)(O)Cn1ccc(NC(=O)[C@@H](CC2CCCC2)n2ncc(Oc3ccccc3S(C)(=O)=O)cc2=O)n1 [Example 30B, (R)-3-Cyclopentyl-N-[1-(2-hydroxy-2-methyl-propyl)-1H-pyrazol-3-yl]-2-[4-(2-methanesulfonyl-phenoxy)-6-oxo-6H-pyridazin-1-yl]-propionamide] | 1.16 fold

Same assay, conditions: 5 mM D-glucose, 30° C., pH 7.1, 10% DMSO

Row | Structure (SMILES) | SC1.5 average (concentration of activator that produced a 50% increase in the activity of GK)
2 | CC(C)(O)Cn1ccc(NC(=O)[C@@H](CC2CCCC2)n2ncc(Oc3cc(F)ccc3F)cc2=O)n1 [Example 33B, (R)-3-Cyclopentyl-2-[4-(2,5-difluoro-phenoxy)-6-oxo-6H-pyridazin-1-yl]-N-[1-(2-hydroxy-2-methyl-propyl)-1H-pyrazol-3-yl]-propionamide] | 8.849 µM
3 | CC(C)(O)Cn1ccc(NC(=O)C(CC2CCCC2)n2ncc(Oc3cccc4cnccc34)cc2=O)n1 (stereo not drawn) [Example 37, 3-Cyclopentyl-N-[1-(2-hydroxy-2-methyl-propyl)-1H-pyrazol-3-yl]-2-[4-(isoquinolin-5-yloxy)-6-oxo-6H-pyridazin-1-yl]-propionamide] | 0.566 µM
4 | CC(C)(O)Cn1ccc(NC(=O)[C@@H](CC2CCCC2)n2ncc(Oc3ccccc3S(C)(=O)=O)cc2=O)n1 [Example 30B, (R)-3-Cyclopentyl-N-[1-(2-hydroxy-2-methyl-propyl)-1H-pyrazol-3-yl]-2-[4-(2-methanesulfonyl-phenoxy)-6-oxo-6H-pyridazin-1-yl]-propionamide] | > 30 µM
5 | CC(C)CC(C(=O)Nc1ccn(CC(C)(C)O)n1)n1ncc(Oc2c(F)cccc2F)cc1=O (stereo not drawn) [Example 42, 2-[4-(2,6-Difluoro-phenoxy)-6-oxo-6H-pyridazin-1-yl]-4-methyl-pentanoic acid [1-(2-hydroxy-2-methyl-propyl)-1H-pyrazol-3-yl]-amide] | 0.349 µM
6 | CC(C)(O)Cn1ccc(NC(=O)C(CC2CCCCC2)n2ncc(Oc3ccc(OC(F)(F)F)cc3Cl)cc2=O)n1 (stereo not drawn) [Example 119, 2-[4-(2-Chloro-4-trifluoromethoxy-phenoxy)-6-oxo-6H-pyridazin-1-yl]-3-cyclohexyl-N-[1-(2-hydroxy-2-methyl-propyl)-1H-pyrazol-3-yl]-propionamide] | 0.811 µM
7 | Cc1nnc(NC(=O)C(CC2CCCC2)n2ncc(Oc3ccccc3)cc2=O)s1 (stereo not drawn) [Example 4, 3-Cyclopentyl-N-(5-methyl-[1,3,4]thiadiazol-2-yl)-2-(6-oxo-4-phenoxy-6H-pyridazin-1-yl)-propionamide] | 6.205 µM
8 | CC(C)(O)Cn1ccc(NC(=O)C(CC2CCCC2)n2ncc(Oc3ccccc3C(C)(C)C)cc2=O)n1 (stereo not drawn) [Example 90, 2-[4-(2-tert-Butyl-phenoxy)-6-oxo-6H-pyridazin-1-yl]-3-cyclopentyl-N-[1-(2-hydroxy-2-methyl-propyl)-1H-pyrazol-3-yl]-propionamide] | 0.5 µM
9 | CC(C)(O)Cn1ccc(NC(=O)C(CC2CCCC2)n2ncc(Oc3cccc(Oc4ccccc4)c3)cc2=O)n1 (stereo not drawn) [Example 35, 3-Cyclopentyl-N-[1-(2-hydroxy-2-methyl-propyl)-1H-pyrazol-3-yl]-2-[6-oxo-4-(3-phenoxy-phenoxy)-6H-pyridazin-1-yl]-propionamide] | 2.173 µM
10 | CC(C)(O)Cn1ccc(NC(=O)[C@@H](CC2CCOCC2)n2ncc(Oc3c(F)cccc3F)cc2=O)n1 [Example 43B, (R)-2-[4-(2,6-Difluoro-phenoxy)-6-oxo-6H-pyridazin-1-yl]-N-[1-(2-hydroxy-2-methyl-propyl)-1H-pyrazol-3-yl]-3-(tetrahydro-pyran-4-yl)-propionamide] | 7.536 µM
11 | CC(C)(O)Cn1ccc(NC(=O)[C@H](CC2CCCC2)n2ncc(Oc3cc(F)ccc3F)cc2=O)n1 [Example 33A, (S)-3-Cyclopentyl-2-[4-(2,5-difluoro-phenoxy)-6-oxo-6H-pyridazin-1-yl]-N-[1-(2-hydroxy-2-methyl-propyl)-1H-pyrazol-3-yl]-propionamide] | 0.265 µM
12 | COc1ccc(Oc2cnn(C(CC3CCCC3)C(=O)Nc3ccn(CC(C)(C)O)n3)c(=O)c2)cc1 (stereo not drawn) [Example 15, 3-Cyclopentyl-N-[1-(2-hydroxy-2-methyl-propyl)-1H-pyrazol-3-yl]-2-[4-(4-methoxy-phenoxy)-6-oxo-6H-pyridazin-1-yl]-propionamide] | 1.025 µM
13 | O=C(Nc1ccn(CCO)n1)C(CC1CCCCC1)n1ncc(Oc2c(F)cccc2F)cc1=O (stereo not drawn) [Example 56, 3-Cyclohexyl-2-[4-(2,6-difluoro-phenoxy)-6-oxo-6H-pyridazin-1-yl]-N-[1-(2-hydroxy-ethyl)-1H-pyrazol-3-yl]-propionamide] | 0.153 µM
14 | CC(C)CC(C(=O)Nc1ccn(C[C@@H](O)CO)n1)n1ncc(Oc2cccc3[nH]ccc23)cc1=O (stereo partly drawn) [Example 111, 2-[4-(1H-Indol-4-yloxy)-6-oxo-6H-pyridazin-1-yl]-4-methyl-pentanoic acid [1-((R)-2,3-dihydroxy-propyl)-1H-pyrazol-3-yl]-amide] | 0.554 µM
15 | O=C(Nc1ccn(C[C@@H](O)CO)n1)C(CC1CCCC1)n1ncc(Oc2c(F)cccc2F)cc1=O (stereo partly drawn) [Example 105, 3-Cyclopentyl-2-[4-(2,6-difluoro-phenoxy)-6-oxo-6H-pyridazin-1-yl]-N-[1-((R)-2,3-dihydroxy-propyl)-1H-pyrazol-3-yl]-propionamide] | 0.072 µM
16 | CC(C)(O)Cn1ccc(NC(=O)C(CC2CCCCC2)n2ncc(Oc3cccc4c3OCCO4)cc2=O)n1 (stereo not drawn) [Example 133, 3-Cyclohexyl-2-[4-(2,3-dihydro-benzo[1,4]dioxin-5-yloxy)-6-oxo-6H-pyridazin-1-yl]-N-[1-(2-hydroxy-2-methyl-propyl)-1H-pyrazol-3-yl]-propionamide] | 0.135 µM
17 | CC(C)(O)Cn1ccc(NC(=O)[C@@H](CC2CCCC2)n2ncc(Oc3ccccc3N3CCCC3)cc2=O)n1 [Example 26B, (R)-3-Cyclopentyl-N-[1-(2-hydroxy-2-methyl-propyl)-1H-pyrazol-3-yl]-2-[6-oxo-4-(2-pyrrolidin-1-yl-phenoxy)-6H-pyridazin-1-yl]-propionamide] | 26.027 µM
18 | CC(C)(O)Cn1ccc(NC(=O)[C@@H](CC2CCCC2)n2ncc(Oc3ccccc3C(F)(F)F)cc2=O)n1 [Example 11B, (R)-3-Cyclopentyl-N-[1-(2-hydroxy-2-methyl-propyl)-1H-pyrazol-3-yl]-2-[6-oxo-4-(2-trifluoromethyl-phenoxy)-6H-pyridazin-1-yl]-propionamide] | 6.893 µM
19 | CC(C)CC(C(=O)Nc1ccn(C[C@@H](O)CO)n1)n1ncc(Oc2cccc3ccccc23)cc1=O (stereo partly drawn) [Example 109, 4-Methyl-2-[4-(naphthalen-1-yloxy)-6-oxo-6H-pyridazin-1-yl]-pentanoic acid [1-((R)-2,3-dihydroxy-propyl)-1H-pyrazol-3-yl]-amide] | 0.293 µM
20 | O=C(Nc1ccn(CCO)n1)[C@H](CC1CCCC1)n1ncc(Oc2c(F)cccc2F)cc1=O [Example 60A, (S)-3-Cyclopentyl-2-[4-(2,6-difluoro-phenoxy)-6-oxo-6H-pyridazin-1-yl]-N-[1-(2-hydroxy-ethyl)-1H-pyrazol-3-yl]-propionamide] | 0.066 µM
21 | COc1cccc(Oc2cnn(C(CC(C)C)C(=O)Nc3ccn(C[C@@H](O)CO)n3)c(=O)c2)c1Cl (stereo partly drawn) [Example 127, 2-[4-(2-Chloro-3-methoxy-phenoxy)-6-oxo-6H-pyridazin-1-yl]-4-methyl-pentanoic acid [1-((R)-2,3-dihydroxy-propyl)-1H-pyrazol-3-yl]-amide] | 0.334 µM
22 | Cc1ccc(F)c(Oc2cnn(C(CC3CCCC3)C(=O)Nc3ccn(C[C@@H](O)CO)n3)c(=O)c2)c1F (stereo partly drawn) [Example 107, 3-Cyclopentyl-2-[4-(2,6-difluoro-3-methyl-phenoxy)-6-oxo-6H-pyridazin-1-yl]-N-[1-((R)-2,3-dihydroxy-propyl)-1H-pyrazol-3-yl]-propionamide] | 0.042 µM
23 | Cc1ccc(C)c(Oc2cnn(C(CC3CCCC3)C(=O)Nc3ccn(CC(C)(C)O)n3)c(=O)c2)c1C (stereo not drawn) [Example 88, 3-Cyclopentyl-N-[1-(2-hydroxy-2-methyl-propyl)-1H-pyrazol-3-yl]-2-[6-oxo-4-(2,3,6-trimethyl-phenoxy)-6H-pyridazin-1-yl]-propionamide] | 0.204 µM
24 | O=C(Nc1ccn(C[C@@H](O)CO)n1)C(CC1CCCC1)n1ncc(Oc2cccc(Cl)c2F)cc1=O (stereo partly drawn) [Example 104, 2-[4-(3-Chloro-2-fluoro-phenoxy)-6-oxo-6H-pyridazin-1-yl]-3-cyclopentyl-N-[1-((R)-2,3-dihydroxy-propyl)-1H-pyrazol-3-yl]-propionamide] | 0.139 µM

Source: patent US8258134B2, “Pyridazinone glucokinase activators” (Hoffmann-La Roche Inc., priority 2008, dated 2012)
